Assay results published in article PMC8371461 (Frontiers in Pharmacology, 2021).

Key:
TIE1 = target: T1, TIE1 (Homo sapiens, UniProt P35590); assay: kinome scan; assay type: binding; conditions: 10 µM
T1 construct: purchased DiscoverX (KINOMEscan)

ARK5 = target: T2, ARK5 (Homo sapiens, UniProt O60285); assay: kinome scan; assay type: binding; conditions: 10 µM
T2 construct: purchased DiscoverX (KINOMEscan)

MARK3 = target: T3, MARK3 (Homo sapiens, UniProt P27448); assay: kinome scan; assay type: binding; conditions: 10 µM
T3 construct: purchased DiscoverX (KINOMEscan)

PIK3CA(E545A) = target: T4, PIK3CA(E545A) (Homo sapiens, UniProt P42336, E545A); assay: kinome scan; assay type: binding; conditions: 10 µM
T4 construct: purchased DiscoverX (KINOMEscan)

VEGFR2 = target: T5, VEGFR2 (Homo sapiens, UniProt P35968); assay: kinome scan; assay type: binding; conditions: 10 µM
T5 construct: purchased DiscoverX (KINOMEscan)

[1] = target: T6, JAK2(JH1domain-catalytic) (Homo sapiens, UniProt O60674); assay: kinome scan; assay type: binding; conditions: 10 µM
T6 construct: JAK2(JH1domain-catalytic); purchased DiscoverX (KINOMEscan)

FER = target: T7, FER (Homo sapiens, UniProt P16591); assay: kinome scan; assay type: binding; conditions: 10 µM
T7 construct: purchased DiscoverX (KINOMEscan)

PRKCE = target: T8, PRKCE (Homo sapiens, UniProt Q02156); assay: kinome scan; assay type: binding; conditions: 10 µM
T8 construct: purchased DiscoverX (KINOMEscan)

QSK = target: T9, QSK (Homo sapiens, UniProt Q9Y2K2); assay: kinome scan; assay type: binding; conditions: 10 µM
T9 construct: purchased DiscoverX (KINOMEscan)

PIP5K1A = target: T10, PIP5K1A (Homo sapiens, UniProt Q99755); assay: kinome scan; assay type: binding; conditions: 10 µM
T10 construct: purchased DiscoverX (KINOMEscan)

SNRK = target: T11, SNRK (Homo sapiens, UniProt Q9NRH2); assay: kinome scan; assay type: binding; conditions: 10 µM
T11 construct: purchased DiscoverX (KINOMEscan)

AXL = target: T12, AXL (Homo sapiens, UniProt P30530); assay: kinome scan; assay type: binding; conditions: 10 µM
T12 construct: purchased DiscoverX (KINOMEscan)

[2] = target: T13, ABL1(F317L)-phosphorylated (Homo sapiens, UniProt P00519, F317L); assay: kinome scan; assay type: binding; conditions: 10 µM
T13 construct: purchased DiscoverX (KINOMEscan)

MAP3K3 = target: T14, MAP3K3 (Homo sapiens, UniProt Q99759); assay: kinome scan; assay type: binding; conditions: 10 µM
T14 construct: purchased DiscoverX (KINOMEscan)

[3] = target: T15, ABL1(T315I)-nonphosphorylated (Homo sapiens, UniProt P00519, T315I); assay: kinome scan; assay type: binding; conditions: 10 µM
T15 construct: purchased DiscoverX (KINOMEscan)

ERK = ERK phosphorylation by Western blotting; assay type: cell-based, mouse; conditions: PSC, data not shown
Excerpt: It is noteworthy that, in parallel, a regulation of the ERK pathway was not confirmed at the protein level, assessed by the study of ERK phosphorylation by Western blotting (data not shown). The effects of the drug on proliferation or differentiation was next investigated in quantitative assays. The rate of cell proliferation of the PSC, assessed during five days by quantification of intracellular ATP, was not affected by the drug (Figure 2A). The CGR8 PSC line was stably transduced with a dual promoter/reporter gene construct containing a ubiquitous promoter (EF1αS) controlling the expression of Renilla Luciferase (RLuc) and also an early neural-specific promoter (Tα1), controlling the expression of Firefly Luciferase (FLuc). Then, neural differentiation was quantified by the normalized ratio between FLuc and RLuc ([Suter et al., 2009]). […] After 72 h, the cells were lysed for RLuc and FLuc luminescence measurement in the presence of their substrates, each signal being normalized with the signal obtained with the vehicle alone (DMSO).

AMPK-alpha2 = target: T16, AMPK-alpha2 (Homo sapiens, UniProt P54646); assay: kinome scan; assay type: binding; conditions: 10 µM
T16 construct: purchased DiscoverX (KINOMEscan)

[4] = target: T17, RPS6KA5(Kin.Dom.2-C-terminal) (Homo sapiens, UniProt O75582); assay: kinome scan; assay type: binding; conditions: 10 µM
T17 construct: RPS6KA5(Kin.Dom.2-C-terminal); purchased DiscoverX (KINOMEscan)

SRPK2 = target: T18, SRPK2 (Homo sapiens, UniProt P78362); assay: kinome scan; assay type: binding; conditions: 10 µM
T18 construct: purchased DiscoverX (KINOMEscan)

RIPK5 = target: T19, RIPK5 (Homo sapiens, UniProt Q6XUX3); assay: kinome scan; assay type: binding; conditions: 10 µM
T19 construct: purchased DiscoverX (KINOMEscan)

DAPK3 = target: T20, DAPK3 (Homo sapiens, UniProt O43293); assay: kinome scan; assay type: binding; conditions: 10 µM
T20 construct: purchased DiscoverX (KINOMEscan)

CDK4-cyclinD1 = target: T21, CDK4-cyclinD1 (Homo sapiens, UniProt P11802); assay: kinome scan; assay type: binding; conditions: 10 µM
T21 construct: purchased DiscoverX (KINOMEscan)

ROS1 = target: T22, ROS1 (Homo sapiens, UniProt P08922); assay: kinome scan; assay type: binding; conditions: 10 µM
T22 construct: purchased DiscoverX (KINOMEscan)

CSNK2A1 = target: T23, CSNK2A1 (Homo sapiens, UniProt P68400); assay: kinome scan; assay type: binding; conditions: 10 µM
T23 construct: purchased DiscoverX (KINOMEscan)

[5] = target: T24, RSK3(Kin.Dom.1-N-terminal) (Homo sapiens, UniProt Q15349); assay: kinome scan; assay type: binding; conditions: 10 µM
T24 construct: RSK3(Kin.Dom.1-N-terminal); purchased DiscoverX (KINOMEscan)

[6] = tested on: Tau Fibril Formation, Thioflavin T Binding; design: method as in CHEMBL1614421; conditions: reported activity, data mining; ref CHEMBL1614421; cited from earlier work
CAMKK1 = target: T25, CAMKK1 (Homo sapiens, UniProt Q8N5S9); assay: kinome scan; assay type: binding; conditions: 10 µM
T25 construct: purchased DiscoverX (KINOMEscan)

[7] = tested on: Mitochondrial membrane potential; design: method as in CHEMBL1614240; conditions: reported activity, data mining; ref CHEMBL1614240; cited from earlier work
PLK1 = target: T26, PLK1 (Homo sapiens, UniProt P53350); assay: kinome scan; assay type: binding; conditions: 10 µM
T26 construct: purchased DiscoverX (KINOMEscan)

CAMK2D = target: T27, CAMK2D (Homo sapiens, UniProt Q13557); assay: kinome scan; assay type: binding; conditions: 10 µM
T27 construct: purchased DiscoverX (KINOMEscan)

CDK11 = target: T28, CDK11 (Homo sapiens, UniProt Q9BWU1); assay: kinome scan; assay type: binding; conditions: 10 µM
T28 construct: purchased DiscoverX (KINOMEscan)

CDK9 = target: T29, CDK9 (Homo sapiens, UniProt P50750); assay: kinome scan; assay type: binding; conditions: 10 µM
T29 construct: purchased DiscoverX (KINOMEscan)

NLK = target: T30, NLK (Homo sapiens, UniProt Q9UBE8); assay: kinome scan; assay type: binding; conditions: 10 µM
T30 construct: purchased DiscoverX (KINOMEscan)

TTK = target: T31, TTK (Homo sapiens, UniProt P33981); assay: kinome scan; assay type: binding; conditions: 10 µM
T31 construct: purchased DiscoverX (KINOMEscan)

DMPK = target: T32, DMPK (Homo sapiens, UniProt Q09013); assay: kinome scan; assay type: binding; conditions: 10 µM
T32 construct: purchased DiscoverX (KINOMEscan)

DAPK1 = target: T33, DAPK1 (Homo sapiens, UniProt P53355); assay: kinome scan; assay type: binding; conditions: 10 µM
T33 construct: purchased DiscoverX (KINOMEscan)

T11 sequence (Q9NRH2 whole entry): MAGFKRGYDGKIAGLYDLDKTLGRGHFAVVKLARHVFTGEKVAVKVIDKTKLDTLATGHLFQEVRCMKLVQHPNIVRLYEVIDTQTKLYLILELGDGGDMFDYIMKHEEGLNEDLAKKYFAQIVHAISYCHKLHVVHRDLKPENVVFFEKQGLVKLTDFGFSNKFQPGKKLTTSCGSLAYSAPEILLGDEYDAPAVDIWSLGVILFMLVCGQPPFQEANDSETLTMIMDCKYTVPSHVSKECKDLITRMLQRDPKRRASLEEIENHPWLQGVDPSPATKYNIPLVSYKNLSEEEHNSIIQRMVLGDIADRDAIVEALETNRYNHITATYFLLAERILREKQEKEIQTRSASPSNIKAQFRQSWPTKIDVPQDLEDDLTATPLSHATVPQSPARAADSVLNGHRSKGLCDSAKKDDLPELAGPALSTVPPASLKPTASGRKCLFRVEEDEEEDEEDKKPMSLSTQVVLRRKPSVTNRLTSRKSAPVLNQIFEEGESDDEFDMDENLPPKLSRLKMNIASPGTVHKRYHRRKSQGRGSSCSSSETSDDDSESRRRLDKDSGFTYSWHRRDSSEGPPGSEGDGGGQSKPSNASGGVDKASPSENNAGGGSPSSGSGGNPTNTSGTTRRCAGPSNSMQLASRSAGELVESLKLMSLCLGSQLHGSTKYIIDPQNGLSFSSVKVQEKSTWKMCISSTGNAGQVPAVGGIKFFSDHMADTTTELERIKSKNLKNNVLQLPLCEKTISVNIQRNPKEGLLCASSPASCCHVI
T22 sequence (P08922 28-2347): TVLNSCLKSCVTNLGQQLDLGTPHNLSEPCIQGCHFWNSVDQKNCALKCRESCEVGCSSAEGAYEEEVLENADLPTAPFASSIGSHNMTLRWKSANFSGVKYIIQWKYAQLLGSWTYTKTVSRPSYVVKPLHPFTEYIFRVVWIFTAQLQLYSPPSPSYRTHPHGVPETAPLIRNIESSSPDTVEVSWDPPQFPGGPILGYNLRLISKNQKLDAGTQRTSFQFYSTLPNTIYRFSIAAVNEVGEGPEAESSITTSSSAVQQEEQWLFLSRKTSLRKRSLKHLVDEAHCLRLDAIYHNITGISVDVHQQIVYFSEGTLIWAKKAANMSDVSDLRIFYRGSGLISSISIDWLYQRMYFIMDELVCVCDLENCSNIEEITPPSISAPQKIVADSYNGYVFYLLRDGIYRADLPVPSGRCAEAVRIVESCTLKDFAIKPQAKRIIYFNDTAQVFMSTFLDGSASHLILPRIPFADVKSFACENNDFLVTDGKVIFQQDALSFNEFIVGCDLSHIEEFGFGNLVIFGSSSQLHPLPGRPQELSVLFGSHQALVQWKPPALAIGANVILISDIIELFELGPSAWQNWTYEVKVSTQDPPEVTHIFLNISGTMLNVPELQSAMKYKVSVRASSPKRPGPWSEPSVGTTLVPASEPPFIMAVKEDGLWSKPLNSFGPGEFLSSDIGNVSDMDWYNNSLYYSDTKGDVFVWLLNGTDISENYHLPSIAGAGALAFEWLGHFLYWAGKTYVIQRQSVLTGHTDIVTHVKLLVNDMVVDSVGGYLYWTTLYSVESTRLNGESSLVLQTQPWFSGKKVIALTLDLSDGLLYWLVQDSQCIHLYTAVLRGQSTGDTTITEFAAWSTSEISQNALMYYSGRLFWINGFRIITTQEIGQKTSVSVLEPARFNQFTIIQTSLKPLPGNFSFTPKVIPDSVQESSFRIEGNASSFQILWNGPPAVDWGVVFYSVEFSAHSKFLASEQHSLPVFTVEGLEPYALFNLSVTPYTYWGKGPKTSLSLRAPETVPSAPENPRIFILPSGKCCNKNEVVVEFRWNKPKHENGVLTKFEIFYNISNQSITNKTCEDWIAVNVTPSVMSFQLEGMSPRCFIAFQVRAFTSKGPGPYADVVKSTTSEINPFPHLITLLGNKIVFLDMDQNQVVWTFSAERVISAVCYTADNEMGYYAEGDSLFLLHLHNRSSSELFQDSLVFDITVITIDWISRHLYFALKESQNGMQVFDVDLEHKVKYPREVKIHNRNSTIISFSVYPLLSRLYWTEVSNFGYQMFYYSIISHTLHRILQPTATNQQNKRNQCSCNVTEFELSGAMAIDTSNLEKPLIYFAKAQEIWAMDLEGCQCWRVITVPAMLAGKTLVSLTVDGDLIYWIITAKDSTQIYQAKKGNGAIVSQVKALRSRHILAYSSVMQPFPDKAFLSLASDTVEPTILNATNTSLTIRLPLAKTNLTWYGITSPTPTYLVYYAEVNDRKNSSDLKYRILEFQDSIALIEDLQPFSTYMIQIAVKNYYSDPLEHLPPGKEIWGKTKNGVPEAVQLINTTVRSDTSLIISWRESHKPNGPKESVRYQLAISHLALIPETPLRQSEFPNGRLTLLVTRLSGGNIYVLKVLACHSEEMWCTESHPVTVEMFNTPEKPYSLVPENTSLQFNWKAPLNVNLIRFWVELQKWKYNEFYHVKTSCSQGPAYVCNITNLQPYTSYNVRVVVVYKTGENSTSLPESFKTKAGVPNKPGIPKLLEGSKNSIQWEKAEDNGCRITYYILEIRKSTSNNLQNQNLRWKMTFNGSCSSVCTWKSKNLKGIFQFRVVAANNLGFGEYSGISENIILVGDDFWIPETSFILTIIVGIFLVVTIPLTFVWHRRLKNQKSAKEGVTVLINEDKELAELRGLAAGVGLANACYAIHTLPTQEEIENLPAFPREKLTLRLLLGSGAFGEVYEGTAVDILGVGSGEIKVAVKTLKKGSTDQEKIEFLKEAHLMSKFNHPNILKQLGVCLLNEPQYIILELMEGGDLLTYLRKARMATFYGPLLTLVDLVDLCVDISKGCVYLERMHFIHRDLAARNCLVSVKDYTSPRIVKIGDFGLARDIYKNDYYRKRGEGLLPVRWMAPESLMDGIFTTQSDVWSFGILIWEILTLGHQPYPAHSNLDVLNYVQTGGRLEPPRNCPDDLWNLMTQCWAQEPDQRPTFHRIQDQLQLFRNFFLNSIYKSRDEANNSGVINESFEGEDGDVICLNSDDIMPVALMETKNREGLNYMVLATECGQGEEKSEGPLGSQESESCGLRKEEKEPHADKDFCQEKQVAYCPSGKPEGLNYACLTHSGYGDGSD
T26 sequence (P53350 whole entry): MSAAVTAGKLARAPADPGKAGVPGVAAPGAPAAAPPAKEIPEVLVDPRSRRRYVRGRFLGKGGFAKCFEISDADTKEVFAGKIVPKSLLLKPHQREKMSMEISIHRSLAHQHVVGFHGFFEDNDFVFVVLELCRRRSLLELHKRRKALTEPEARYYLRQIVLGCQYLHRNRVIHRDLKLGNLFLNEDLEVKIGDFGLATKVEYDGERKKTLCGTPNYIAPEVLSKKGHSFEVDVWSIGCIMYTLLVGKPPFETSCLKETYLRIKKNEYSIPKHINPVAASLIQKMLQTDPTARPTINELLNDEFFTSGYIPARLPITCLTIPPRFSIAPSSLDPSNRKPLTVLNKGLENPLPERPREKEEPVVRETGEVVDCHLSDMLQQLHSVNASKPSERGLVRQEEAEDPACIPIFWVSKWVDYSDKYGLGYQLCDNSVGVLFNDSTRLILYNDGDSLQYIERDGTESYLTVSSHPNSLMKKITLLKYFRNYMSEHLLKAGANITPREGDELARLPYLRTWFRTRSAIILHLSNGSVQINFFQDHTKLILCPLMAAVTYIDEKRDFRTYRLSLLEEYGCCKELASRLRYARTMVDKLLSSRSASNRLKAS
T16 sequence (P54646 whole entry): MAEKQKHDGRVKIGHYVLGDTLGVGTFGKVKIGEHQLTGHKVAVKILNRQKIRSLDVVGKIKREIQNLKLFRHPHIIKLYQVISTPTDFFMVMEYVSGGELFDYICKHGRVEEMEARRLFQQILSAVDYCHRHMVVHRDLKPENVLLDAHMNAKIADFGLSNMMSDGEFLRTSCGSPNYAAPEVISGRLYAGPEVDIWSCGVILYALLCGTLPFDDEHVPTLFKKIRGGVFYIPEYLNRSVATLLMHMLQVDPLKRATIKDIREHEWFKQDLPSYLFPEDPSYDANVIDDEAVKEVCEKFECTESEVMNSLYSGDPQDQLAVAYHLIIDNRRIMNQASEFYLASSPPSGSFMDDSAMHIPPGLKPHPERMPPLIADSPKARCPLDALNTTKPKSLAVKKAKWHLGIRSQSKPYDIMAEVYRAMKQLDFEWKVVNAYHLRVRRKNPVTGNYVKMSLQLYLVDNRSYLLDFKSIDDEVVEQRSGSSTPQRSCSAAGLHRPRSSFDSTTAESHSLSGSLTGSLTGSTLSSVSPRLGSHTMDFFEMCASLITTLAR
T12 sequence (P30530 26-894): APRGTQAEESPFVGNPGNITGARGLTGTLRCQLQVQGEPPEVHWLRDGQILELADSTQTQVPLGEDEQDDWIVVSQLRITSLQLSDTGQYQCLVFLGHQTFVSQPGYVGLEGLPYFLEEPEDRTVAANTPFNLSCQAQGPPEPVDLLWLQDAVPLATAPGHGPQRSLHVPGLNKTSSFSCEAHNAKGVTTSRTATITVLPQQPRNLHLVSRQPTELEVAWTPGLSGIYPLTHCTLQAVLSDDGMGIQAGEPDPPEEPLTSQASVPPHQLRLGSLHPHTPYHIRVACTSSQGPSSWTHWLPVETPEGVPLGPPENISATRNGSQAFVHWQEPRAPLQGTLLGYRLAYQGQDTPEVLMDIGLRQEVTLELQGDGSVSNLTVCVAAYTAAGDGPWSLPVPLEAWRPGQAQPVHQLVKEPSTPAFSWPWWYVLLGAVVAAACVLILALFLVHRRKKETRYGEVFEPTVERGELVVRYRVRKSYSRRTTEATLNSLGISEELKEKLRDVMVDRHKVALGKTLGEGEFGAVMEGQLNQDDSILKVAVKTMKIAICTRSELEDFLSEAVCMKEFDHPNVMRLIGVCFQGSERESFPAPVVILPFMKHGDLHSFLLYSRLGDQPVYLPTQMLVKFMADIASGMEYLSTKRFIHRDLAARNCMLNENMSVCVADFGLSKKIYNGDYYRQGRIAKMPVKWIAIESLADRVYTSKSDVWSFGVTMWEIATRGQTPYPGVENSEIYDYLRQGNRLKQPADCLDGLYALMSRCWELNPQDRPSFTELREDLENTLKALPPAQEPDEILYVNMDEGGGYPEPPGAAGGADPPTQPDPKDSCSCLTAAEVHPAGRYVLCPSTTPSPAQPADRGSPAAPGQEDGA

## Nc1ccc(N=Nc2ccccc2)c(N)n1 [phenazopyridine, 2,6-diamino-3-(phenylazo)pyridine]
TIE1
  kinase inhibition: 91
ARK5
  kinase inhibition: 89
MARK3
  kinase inhibition: 100
PIK3CA(E545A)
  kinase inhibition: 100
VEGFR2
  kinase inhibition: 97
[1]
  kinase inhibition: 82
FER
  kinase inhibition: 100
PRKCE
  kinase inhibition: 100
QSK
  kinase inhibition: 94
PIP5K1A
  kinase inhibition: 56
SNRK
  kinase inhibition: 100
AXL
  kinase inhibition: 100
[2]
  kinase inhibition: 64
MAP3K3
  kinase inhibition: 89
[3]
  kinase inhibition: 100
ERK
  regulation of the ERK pathway (ERK phosphorylation): not confirmed
AMPK-alpha2
  kinase inhibition: 84
[4]
  kinase inhibition: 100
SRPK2
  kinase inhibition: 100
RIPK5
  kinase inhibition: 68
DAPK3
  kinase inhibition: 100
CDK4-cyclinD1
  kinase inhibition: 100
ROS1
  kinase inhibition: 100
CSNK2A1
  kinase inhibition: 86
[5]
  kinase inhibition: 100
[6]
  Concentration: 3.9 µM
CAMKK1
  kinase inhibition: 100
[7]
  Concentration: 16.7 µM
PLK1
  remaining binding (% of control): 79
CAMK2D
  kinase inhibition: 88
CDK11
  kinase inhibition: 90
CDK9
  kinase inhibition: 88
NLK
  kinase inhibition: 88
TTK
  kinase inhibition: 88
DMPK
  kinase inhibition: 89
DAPK1
  kinase inhibition: 86
